Starred links: 1 amine or outer side, 2 acyl side, 3 side chain; linkers in the order of their positions; H or OH if unused. Positions of bridges follow the written chain, without caps; N, C: chain ends. Residues, ends and D or L forms follow the SMILES beside them. Groups on a side chain read outwards from the residue. *: point of attachment. C20 diacid = O=C(O)CCCCCCCCCCCCCCCCCCC(=O)*; C18 diacid = O=C(O)CCCCCCCCCCCCCCCCC(=O)*; γGlu = O=C(O)[C@H](CCC(=O)[*:2])N[*:1]; AEEA = NCCOCCOCC(=O)O
Experiment: Assay (III) ThT fibrillation assay for physical stability
Format: physicochemical
Conditions: for ThT pH 4.0 lag time: pH 4.0, ThT fibrillation assay
Excerpt: Assay (III)—ThT Fibrillation Assays for the Assessment of Physical Stability of Protein formulations Low physical stability of a polypeptide may lead to amyloid fibril formation, which is observed as well-ordered, thread-like macromolecular structures in the sample eventually resulting in gel formation. This has traditionally been measured by visual inspection of the sample. However, that kind of measurement is very subjective and depending on the observer. Therefore, the application of a small molecule indicator probe is much more advantageous. Thioflavin T (ThT) is such a probe and has a distinct fluorescence signature when binding to fibrils [Naiki et al. (1989) Anal. Biochem. 177, 244-249; LeVine (1999) Methods. Enzymol. […], 274-284]. The time course for fibril formation can be described by a sigmoidal curve with the following expression [Nielsen et al. (2001) Biochemistry 40, 6036-6046]: [formula] Here, F is the ThT fluorescence at the time t. The constant t0 is the time needed to reach 50% of maximum fluorescence. […] Few of those intermediates nucleate to form a template onto which further intermediates may assembly and the fibrillation proceeds. The lag-time corresponds to the interval in which the critical mass of nucleus is built up and the apparent rate constant is the rate with which the fibril itself is formed. Sample Preparation Samples were prepared freshly before each assay. Each sample composition is described in each example. The pH of the sample was adjusted to the desired value using appropriate amounts of concentrated NaOH and HClO4 or HCl. Thioflavin T was added to the samples from a stock solution in H2O to a final concentration of 1 μM. Sample aliquots of 200 μl were placed in a 96 well microtiter plate (Packard OptiPlate™-96, white polystyrene). Usually, four or eight replica of each sample (corresponding to one test condition) were placed in one column of wells. The plate was sealed with Scotch Pad (Qiagen). Incubation and Fluorescence Measurement Incubation at given temperature, shaking and measurement of the ThT fluorescence emission were done in a Fluoroskan Ascent FL fluorescence platereader or Varioskan platereader (Thermo Labsystems). The temperature was adjusted to 37° C. The orbital shaking was adjusted to 960 rpm with an amplitude of 1 mm in all the presented data. Fluorescence measurement was done using excitation through a 444 nm filter and measurement of emission through a 485 nm filter. Each run was initiated by incubating the plate at the assay temperature for 10 min. The plate was measured every 20 minutes for a desired period of time. Between each measurement, the plate was shaken and heated as described. Data Handling The measurement points were saved in Microsoft Excel format for further processing and curve drawing and fitting was performed using GraphPad Prism. The background emission from ThT in the absence of fibrils was negligible. The data points are typically a mean of four or eight samples and shown with standard deviation error bars. Only data obtained in the same experiment (i.e. samples on the same plate) are presented in the same graph ensuring a relative measure of fibrillation between experiments. The data set may be fitted to Eq. (1). However, since full sigmodial curves in this case are not always achieved during the measurement time, the degree of fibrillation is expressed as ThT fluorescence tabulated as the mean of the samples and shown with the standard deviation at various time points. Measurement of Initial and Final Concentrations The polypeptide concentration in each of the tested formulations were measured both before application in the ThT fibrillation assay (“Initial”) and after completion of the ThT fibrillation (“After ThT assay”). Concentrations were determined by reverse HPLC methods using a pramlintide standard as a reference. Before measurement after completion 150 μl was collected from each of the replica and transferred to an Eppendorf tube. […]

Compound	ThT pH 4.0 lag time (physical stability in fibrillogenesis assay) [h]	ThT pH 4.0 lag time [h]
CC[C@H](C)[C@H](NC(=O)[C@@H]1CCCN1C(=O)CNC(=O)[C@H](Cc1ccccc1)NC(=O)[C@H](CC(N)=O)NC(=O)[C@H](CC(N)=O)NC(=O)[C@H](CO)NC(=O)[C@H](CO)NC(=O)[C@H](Cc1c[nH]cn1)NC(=O)[C@H](CCCNC(=N)N)NC(=O)[C@H](CC(C)C)NC(=O)[C@H](Cc1ccccc1)NC(=O)[C@H](CCC(=O)O)NC(=O)[C@H](C)NC(=O)[C@H](CC(C)C)NC(=O)[C@H](CCCNC(=N)N)NC(=O)[C@H](CCC(N)=O)NC(=O)[C@@H](NC(=O)[C@H](C)NC(=O)[C@@H]1CSSC[C@H](NC(=O)CNC(=O)CC[C@H](NC(=O)CCCCCCCCCCCCCCCCCCC(=O)O)C(=O)O)C(=O)N[C@@H](CC(N)=O)C(=O)N[C@@H]([C@@H](C)O)C(=O)N[C@@H](C)C(=O)N[C@@H]([C@@H](C)O)C(=O)N1)[C@@H](C)O)C(=O)N[C@@H](CC(C)C)C(=O)N1CCC[C@H]1C(=O)N1CCC[C@H]1C(=O)N[C@H](C(=O)N[C@@H](CC(N)=O)C(=O)N[C@H](C(=O)NCC(=O)N[C@@H](CO)C(=O)N[C@@H](CC(N)=O)C(=O)N[C@H](C(=O)N1CCC[C@H]1C(N)=O)[C@@H](C)O)C(C)C)[C@@H](C)O [Example 88, N-alpha-[(S)-4-Carboxy-4-(19-carboxynonadecanoylamino)butyryl]-[Gly1,Glu14,Arg17,Pro37]-pramlintide] ({C20 diacid-γGlu}-GCNTATCATQRLAEFLRHSSNNFGPILPPTNVGSNTP-NH2; disulfide 2-7)	>45	>45
CC[C@H](C)[C@H](NC(=O)[C@@H]1CCCN1C(=O)CNC(=O)[C@H](Cc1ccccc1)NC(=O)[C@H](CC(N)=O)NC(=O)[C@H](CC(N)=O)NC(=O)[C@H](CO)NC(=O)[C@H](CO)NC(=O)[C@H](Cc1c[nH]cn1)NC(=O)[C@H](CCCNC(=N)N)NC(=O)[C@H](CC(C)C)NC(=O)[C@H](Cc1ccccc1)NC(=O)[C@H](CCC(=O)O)NC(=O)[C@H](C)NC(=O)[C@H](CC(C)C)NC(=O)[C@H](CCCNC(=N)N)NC(=O)[C@H](CCC(N)=O)NC(=O)[C@@H](NC(=O)[C@H](C)NC(=O)[C@@H]1CSSC[C@H](NC(=O)[C@H](CCCCN)NC(=O)[C@H](CCC(=O)O)NC(=O)CC[C@H](NC(=O)CCCCCCCCCCCCCCCCCCC(=O)O)C(=O)O)C(=O)N[C@@H](CC(N)=O)C(=O)N[C@@H]([C@@H](C)O)C(=O)N[C@@H](C)C(=O)N[C@@H]([C@@H](C)O)C(=O)N1)[C@@H](C)O)C(=O)N[C@@H](CC(C)C)C(=O)N1CCC[C@H]1C(=O)N1CCC[C@H]1C(=O)N[C@H](C(=O)N[C@@H](CC(N)=O)C(=O)N[C@H](C(=O)NCC(=O)N[C@@H](CO)C(=O)N[C@@H](Cc1c[nH]cn1)C(=O)N[C@H](C(=O)N[C@@H](Cc1ccc(O)cc1)C(N)=O)[C@@H](C)O)C(C)C)[C@@H](C)O [Example 58, N-alpha-[(S)-4-Carboxy-4-(19-carboxynonadecanoylamino)butyryl]-Glu-[Glu14,Arg17,His35]-pramlintide] ({C20 diacid-γGlu}-EKCNTATCATQRLAEFLRHSSNNFGPILPPTNVGSHTY-NH2; disulfide 3-8 (inferred); C-terminus assumed)	>45	>45
CC[C@H](C)[C@H](NC(=O)[C@@H]1CCCN1C(=O)CNC(=O)[C@H](Cc1ccccc1)NC(=O)[C@H](CC(N)=O)NC(=O)[C@H](CC(N)=O)NC(=O)[C@H](CO)NC(=O)[C@H](CO)NC(=O)[C@H](Cc1c[nH]cn1)NC(=O)[C@H](Cc1c[nH]cn1)NC(=O)[C@H](CC(C)C)NC(=O)[C@H](Cc1ccccc1)NC(=O)[C@H](CCC(=O)O)NC(=O)[C@H](C)NC(=O)[C@H](CC(C)C)NC(=O)[C@H](CCCNC(=N)N)NC(=O)[C@H](CCC(N)=O)NC(=O)[C@@H](NC(=O)[C@H](C)NC(=O)[C@@H]1CSSC[C@H](NC(=O)[C@H](CCCNC(=N)N)NC(=O)CC[C@H](NC(=O)CCCCCCCCCCCCCCCCCCC(=O)O)C(=O)O)C(=O)N[C@@H](CC(N)=O)C(=O)N[C@@H]([C@@H](C)O)C(=O)N[C@@H](C)C(=O)N[C@@H]([C@@H](C)O)C(=O)N1)[C@@H](C)O)C(=O)N[C@@H](CC(C)C)C(=O)N1CCC[C@H]1C(=O)N1CCC[C@H]1C(=O)N[C@H](C(=O)N[C@@H](CC(N)=O)C(=O)N[C@H](C(=O)NCC(=O)N[C@@H](CO)C(=O)N[C@@H](Cc1c[nH]cn1)C(=O)N[C@H](C(=O)N[C@@H](Cc1ccc(O)cc1)C(N)=O)[C@@H](C)O)C(C)C)[C@@H](C)O [Example 95, N-alpha-[(S)-4-Carboxy-4-(19-carboxynonadecanoylamino)butyryl]-[Arg1,Glu14,His17,His35]-pramlintide] ({C20 diacid-γGlu}-RCNTATCATQRLAEFLHHSSNNFGPILPPTNVGSHTY-NH2; disulfide 2-7 (inferred))		>45
CC[C@H](C)[C@H](NC(=O)[C@@H]1CCCN1C(=O)CNC(=O)[C@H](Cc1ccccc1)NC(=O)[C@H](CC(N)=O)NC(=O)[C@H](CC(N)=O)NC(=O)[C@H](CO)NC(=O)[C@H](CO)NC(=O)[C@H](Cc1c[nH]cn1)NC(=O)[C@H](CCCNC(=N)N)NC(=O)[C@H](CC(C)C)NC(=O)[C@H](Cc1ccccc1)NC(=O)[C@H](CCC(=O)O)NC(=O)[C@H](C)NC(=O)[C@H](CC(C)C)NC(=O)[C@H](CCCNC(=N)N)NC(=O)[C@H](CCC(N)=O)NC(=O)[C@@H](NC(=O)[C@H](C)NC(=O)[C@@H]1CSSC[C@H](NC(=O)[C@H](CCCNC(=N)N)NC(=O)[C@H](CCC(=O)O)NC(=O)CC[C@H](NC(=O)CCCCCCCCCCCCCCCCCCC(=O)O)C(=O)O)C(=O)N[C@@H](CC(N)=O)C(=O)N[C@@H]([C@@H](C)O)C(=O)N[C@@H](C)C(=O)N[C@@H]([C@@H](C)O)C(=O)N1)[C@@H](C)O)C(=O)N[C@@H](CC(C)C)C(=O)N1CCC[C@H]1C(=O)N1CCC[C@H]1C(=O)N[C@H](C(=O)N[C@@H](CC(N)=O)C(=O)N[C@H](C(=O)NCC(=O)N[C@@H](CO)C(=O)N[C@@H](CC(N)=O)C(=O)N[C@H](C(=O)N1CCC[C@H]1C(N)=O)[C@@H](C)O)C(C)C)[C@@H](C)O [compound 156] ({C20 diacid-γGlu}-ERCNTATCATQRLAEFLRHSSNNFGPILPPTNVGSNTP-NH2; disulfide 3-8 (inferred))		>45
CC[C@H](C)[C@H](NC(=O)[C@@H]1CCCN1C(=O)CNC(=O)[C@H](Cc1ccccc1)NC(=O)[C@H](CC(N)=O)NC(=O)[C@H](CO)NC(=O)[C@H](CO)NC(=O)[C@H](CO)NC(=O)[C@H](Cc1c[nH]cn1)NC(=O)[C@H](CCCCNC(=O)COCCOCCNC(=O)COCCOCCNC(=O)CC[C@H](NC(=O)CCCCCCCCCCCCCCCCC(=O)O)C(=O)O)NC(=O)[C@H](CC(C)C)NC(=O)[C@H](Cc1ccccc1)NC(=O)[C@H](CCC(=O)O)NC(=O)[C@H](C)NC(=O)[C@H](CC(C)C)NC(=O)[C@H](CCCNC(=N)N)NC(=O)[C@H](CCC(N)=O)NC(=O)[C@@H](NC(=O)[C@H](C)NC(=O)[C@@H]1CSSC[C@H](NC(=O)[C@@H](N)CCCCN)C(=O)N[C@@H](CC(N)=O)C(=O)N[C@@H]([C@@H](C)O)C(=O)N[C@@H](C)C(=O)N[C@@H]([C@@H](C)O)C(=O)N1)[C@@H](C)O)C(=O)N[C@@H](CC(C)C)C(=O)N1CCC[C@H]1C(=O)N1CCC[C@H]1C(=O)N[C@H](C(=O)N[C@@H](CC(N)=O)C(=O)N[C@H](C(=O)NCC(=O)N[C@@H](CO)C(=O)N[C@@H](CCC(=O)O)C(=O)N[C@H](C(=O)N[C@@H](Cc1ccc(O)cc1)C(N)=O)[C@@H](C)O)C(C)C)[C@@H](C)O [Example 83, N-epsilon17-[2-(2-{2-[2-(2-{2-[(S)-4-Carboxy-4-(17-carboxyheptadecanoylamino)butyrylamino]ethoxy}ethoxy)acetylamino]ethoxy}ethoxy)acetyl]-[Glu14,Lys17,Ser21,Glu35]-pramlintide] (H-KCNTATCATQRLAEFLK([AEEA-AEEA-γGlu-C18 diacid])HSSSNFGPILPPTNVGSETY-NH2; disulfide 2-7 (inferred); N-terminus assumed)	>45	>45

From patent US8741836B2, “Polypeptides” (Novo Nordisk A/S, priority 2011, dated 2014)
